# Earlier results in US11946927B2, “Process and system for identifying individuals having a high risk of inflammatory bowel disease and a method of treatment” (MUSIDORA BIOTECHNOLOGY LLC, priority 2016, dated 2024).
# Tested on: patients with active UC
smiles,measurement,setting,value
Nc1ccc(O)c(C(=O)O)c1 [mesalamine],efficacy of mesalamine in active UC,"active UC, first-line conventional clinical treatment",30-40%
same,clinical treatment failures,"mesalamine used to treat active UC, patients with moderate UC, compared to 80% treated with placebo",60 % of patients
